Our source for the IC50 values is BindingDB's records for doi:10.1021/acs.jmedchem.0c00988 (Rapt Therapeutics, 2020).

Structures are written as SMILES.

What is called IC50 is the point on the concentration scale where inhibition reaches its midpoint.

Assay [1] is described as follows: Antagonist activity at CCR4 in human CCRF-CEM cells assessed as inhibition of CCL22-mediated chemotaxis preincubated for 30 mins followed by CCL22 addition and measured after 60 mins in presence of 100% human serum by CellTiter-Glo assay. On the technique in general: ATP-based viability assays read luminescence as a measure of living cells.
Assay [2] is described as follows: Antagonist activity at CCR4 in mouse Treg cells assessed as inhibition of CCL22-mediated chemotaxis preincubated for 30 mins followed by CCL22 addition and measured after 60 mins in presence of 100% mouse serum by CellTiter-Glo assay.
Assay [3] can be described thus: Antagonist activity at CCR4 in human Treg cells assessed as inhibition of CCL22-mediated chemotaxis preincubated for 30 mins followed by CCL22 addition and measured after 60 mins in presence of 100% human serum by CellTiter-Glo assay.
Assay [4] is described as follows: Antagonist activity at CCR4 in human CCRF-CEM cells assessed as inhibition of CCL17-mediated chemotaxis preincubated for 30 mins followed by CCL17 addition and measured after 60 mins in presence of 100% human serum by CellTiter-Glo assay.

As for `Cc1nn([C@H](C)c2ccc(Cl)cc2Cl)c2nc(N3CC([C@H]4CCCN(CCS(N)(=O)=O)C4)C3)cnc12`, the IC50 in assay [1] came out at 0.717 µM.

As for `Cc1nn([C@H](C)c2ccc(Cl)cc2Cl)c2nc(N3CC([C@H]4CCCN(CCNS(C)(=O)=O)C4)C3)cnc12`, in assay [1], the IC50 is 0.136 µM. Consider `Cc1nn([C@H](C)c2ccc(Cl)cc2Cl)c2nc(N3CC([C@H]4CCCN(CCNS(=O)(=O)C(C)C)C4)C3)cnc12`, for which, in assay [1], the IC50 was found to be 0.115 µM. For `Cc1nn([C@H](C)c2ccc(Cl)cc2Cl)c2nc(N3CC([C@H]4CCCN(CCS(C)(=O)=O)C4)C3)cnc12`, in assay [1], the IC50 came out at 0.575 µM. For `Cc1nn([C@H](C)c2ccc(Cl)cc2Cl)c2nc(N3CC([C@H]4CCCN(CCCS(C)(=O)=O)C4)C3)cnc12`, the IC50 in assay [1] came out at 0.259 µM. For `Cc1nn([C@H](C)c2ccc(Cl)cc2Cl)c2nc(N3CC([C@H]4CCCN(CCCC(=O)O)C4)C3)cnc12`, the IC50 in assay [1] was 0.559 µM.

Turning to `Cc1nn([C@H](C)c2ccc(Cl)cc2Cl)c2nc(N3CC([C@H]4CCCN(CCC(=O)O)C4)C3)cnc12`, in assay [1], the IC50 was 0.37 µM.

For the compound `C[C@H](c1ccc(Cl)cc1Cl)n1nc(C#N)c2ncc(N3CC([C@H]4CCCN(CCC(=O)O)C4)C3)nc21`, the IC50 in assay [1] worked out at 0.409 µM. As for `C[C@H](c1ccc(Cl)cc1Cl)n1nc(C#N)c2ncc(N3CC([C@H]4CCCN(CC(=O)O)C4)C3)nc21`, in assay [1], the IC50 was 0.775 µM. Same read-out and setting: under `Cc1nn([C@H](C)c2ccc(Cl)cc2Cl)c2nc(N3CC([C@H]4CCCN(CCC(N)=O)C4)C3)cnc12` stands 0.247 µM. `CC(=O)NCCN1CCC[C@H](C2CN(c3cnc4c(C)nn([C@H](C)c5ccc(Cl)cc5Cl)c4n3)C2)C1`: in assay [1], the concentration for half-maximal inhibition (IC50) worked out at 0.04 µM. Still for that read-out and setting: under `Cc1nn([C@H](C)c2ccc(Cl)cc2Cl)c2nc(N3CC([C@H]4CCCN(CCNC(=O)C(C)C)C4)C3)cnc12` stands 0.059 µM; under `COC(=O)NCCN1CCC[C@H](C2CN(c3cnc4c(C)nn([C@H](C)c5ccc(Cl)cc5Cl)c4n3)C2)C1`, 0.133 µM; under `C[C@H](c1ccc(Cl)cc1Cl)n1nc(C#N)c2ncc(N3CC([C@H]4CCCN(Cc5cnc[nH]5)C4)C3)nc21`, 0.097 µM. Same read-out and setting: in the case of `C[C@H](c1ccc(Cl)cc1Cl)n1nc(C#N)c2ncc(N3CC([C@H]4CCCN(CCC#N)C4)C3)nc21` it was 0.523 µM; in that of `C[C@H](c1ccc(Cl)cc1Cl)n1nc(C#N)c2ncc(N3CC([C@H]4CCCN(CCC(F)(F)F)C4)C3)nc21`, 1.5 µM. As for `Cc1nn([C@H](C)c2ccc(Cl)cc2Cl)c2nc(N3CC([C@H]4CCCN(CCCO)C4)C3)cnc12`, the half-inhibitory concentration (IC50) in assay [1] stood at 0.109 µM. `Cc1nn([C@H](C)c2ccc(Cl)cc2Cl)c2nc(N3CC([C@H]4CCCN(CCO)C4)C3)cnc12`: the IC50 in assay [1] amounted to 0.074 µM.

Regarding `C[C@H](c1ccc(Cl)cc1Cl)n1nc(C#N)c2ncc(N3CC([C@H]4CCCN(CCO)C4)C3)nc21`, the concentration for half-maximal inhibition (IC50) in assay [2] stood at 0.039 µM; in assay [3], 0.033 µM; in assay [1], 0.05 µM; in assay [4], 0.064 µM. On to `C[C@H](c1ccc(Cl)cc1Cl)n1nc(C(N)=O)c2ncc(N3CC([C@H]4CCCN(CCO)C4)C3)nc21`, for which the IC50 in assay [1] is 0.036 µM. For `CNC(=O)c1nn([C@H](C)c2ccc(Cl)cc2Cl)c2nc(N3CC([C@H]4CCCN(CCO)C4)C3)cnc12`, the IC50 in assay [1] was 0.446 µM. With `C[C@H](c1ccc(Cl)cc1Cl)n1nc(C(=O)N(C)C)c2ncc(N3CC([C@H]4CCCN(CCO)C4)C3)nc21`, the IC50 in assay [1] was 0.379 µM.
